Experimental data from patent US20260028354A1, “TETRAHYDRONAPHTHALENE DERIVATIVES AS ESTROGEN RECEPTOR DEGRADERS” (REGENT OF THE UNIVERSITY OF MICHIGAN, priority 2022, published 2026).
Like-named read-outs stand apart in the source and are kept apart here.

Target: ER in MCF-7 cells (Homo sapiens (Human), UniProt P03372)
Test: In-cell Western (ICW) ER degradation assay in MCF-7 cells
Assay type: cell-based
Details: for DC50: MCF-7, ER degradation, read-out: MCF7 DC50
From the text: In-cell Western (ICW) assays in MCF-7 and T47D cell lines.
Day 3: After 16 hrs of compounds treatment, cells were fixed by 4% PFA and permeabilized with elution buffer (0.1% Triton X-100 in 1% PBS Solution). Subsequently, cells were blocked with Intercept (PBS) Blocking Buffer (Li-COR, Odyssey Blocking Buffer), and were stained with ER (1:500, Cell signaling) primary antibody for overnight at cold room.
Day 4: Remove the buffer, add IRDye 800CW Goat anti-Rabbit IgG Secondary Antibody (1:2000) and CellTag 700 Stain (1:500) in Intercept (PBS) Blocking Buffer. Finally, cell plate is placed in incubator to dry. Image and signal were captured on Odyssey® DLx Imaging System.

[1] = MCF7, MCF-7, maximal ER degradation, 16 hrs treatment, read-out: MCF7 Dmax
[2] = MCF7, read-out: MCF7 Dmax, MCF-7, maximal ER degradation, 16 hrs treatment

ER in MCF-7 cells, sequence (P03372 whole entry): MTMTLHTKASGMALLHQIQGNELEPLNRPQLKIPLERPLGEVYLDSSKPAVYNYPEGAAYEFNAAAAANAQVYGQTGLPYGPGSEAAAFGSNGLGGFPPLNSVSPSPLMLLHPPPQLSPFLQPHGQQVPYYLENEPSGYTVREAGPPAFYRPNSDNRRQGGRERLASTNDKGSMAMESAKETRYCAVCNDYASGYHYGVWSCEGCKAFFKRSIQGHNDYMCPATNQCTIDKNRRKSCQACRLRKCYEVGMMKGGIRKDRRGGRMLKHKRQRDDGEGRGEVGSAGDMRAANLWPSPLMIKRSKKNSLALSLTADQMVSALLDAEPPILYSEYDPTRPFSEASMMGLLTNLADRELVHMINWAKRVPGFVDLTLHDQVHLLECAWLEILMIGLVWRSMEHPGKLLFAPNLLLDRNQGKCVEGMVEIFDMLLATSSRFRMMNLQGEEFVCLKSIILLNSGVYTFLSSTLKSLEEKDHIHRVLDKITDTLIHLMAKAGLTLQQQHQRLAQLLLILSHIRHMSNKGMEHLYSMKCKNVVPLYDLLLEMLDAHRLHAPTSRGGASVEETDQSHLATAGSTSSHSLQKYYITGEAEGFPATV

Compound	Dmax [1] [%]	DC50 (16 hrs treatment) [nM]	Dmax [2] [%]	MCF7 Dmax (MCF-7, maximal ER degradation, 16 hrs treatment)
O=C1CC[C@H](NC(=O)c2ccc3c(n2)OC[C@H]2CN(CC4CCC5(CC4)CN(c4ccc([C@@H]6c7ccc(O)cc7CC[C@@H]6c6ccccc6)cn4)C5)CCN32)C(=O)N1 (single isomer, unassigned) [Compound A127]	50 to 75	1 to 10		
O=C1CC[C@H](N2Cc3c(ccc4c3OC[C@H]3CN(CC5COC6(CCN(c7ccc([C@H]8c9ccc(O)cc9CC[C@H]8c8ccccc8)cn7)CC6)C5)CCN43)C2=O)C(=O)N1 (single isomer, unassigned) [Compound A137]	< 25	1 to 10		
O=C1CC[C@H](N2Cc3c(ccc4c3OC[C@H]3CN(C[C@@H]5COC6(CCN(c7ccc([C@@H]8c9ccc(O)cc9CC[C@@H]8c8ccccc8)cn7)CC6)C5)CCN43)C2=O)C(=O)N1 (single isomer, unassigned) [Compound A138]	50 to 75	< 1		
O=C1CC[C@H](N2Cc3c(ccc4c3OC[C@H]3CN(CC5CC6(CCN(c7ncc([C@H]8c9ccc(O)cc9CC[C@H]8c8ccccc8)cn7)CC6)C5)CCN43)C2=O)C(=O)N1 (single isomer, unassigned) [Compound A139]	50 to 75	1 to 10		
O=C1CC[C@H](N2Cc3cc4c(cc3C2=O)OC[C@@H]2CN(CC3CC5(CCN(c6ncc([C@H]7c8ccc(O)cc8CC[C@H]7c7ccccc7)cn6)CC5)C3)CCN42)C(=O)N1 (single isomer, unassigned) [Compound A143]	50 to 75	10 to 100		
O=C1CC[C@H](N2Cc3cc4c(cc3C2=O)OCC42CCN(CC3CCC4(CC3)CN(c3ccc([C@@H]5c6ccc(O)cc6CC[C@@H]5c5ccccc5)cn3)C4)CC2)C(=O)N1 [Compound A128, (S)-3-(1′-((2-(5-((1S,2S)-6-hydroxy-2-phenyl-1,2,3,4-tetrahydronaphthalen-1-yl)pyridin-2-yl)-2-azaspiro[3.5]nonan-7-yl)methyl)-7-oxo-5,7-dihydro-2H,6H-spiro[furo[2,3-f]isoindole-3,4′-piperidin]-6-yl)piperidine-2,6-dione]		1 to 10	50 to 75	
O=C1CC[C@H](N2Cc3cc4c(cc3C2=O)OC[C@@H]2CN(CC3CCC5(CC3)CN(c3ccc([C@@H]6c7ccc(O)cc7CC[C@@H]6c6ccccc6)cn3)C5)CCN42)C(=O)N1 [Compound A130, (S)-3-((S)-3-((2-(5-((1S,2S)-6-hydroxy-2-phenyl-1,2,3,4-tetrahydronaphthalen-1-yl)pyridin-2-yl)-2-azaspiro[3.5]nonan-7-yl)methyl)-8-oxo-1,2,3,4,4a,5,8,10-octahydro-9H-pyrazino[1′,2′:4,5][1,4]oxazino[2,3-f]isoindol-9-yl)piperidine-2,6-dione]		1 to 10		A (“A”: >=75%)
O=C1CC[C@H](N2Cc3c(ccc4c3OCC43CCN(CC4CC5(CCN(c6ccc([C@@H]7c8ccc(O)cc8CC[C@@H]7c7ccccc7)cc6F)CC5)C4)CC3)C2=O)C(=O)N1 [Compound A146, (S)-3-(1′-((7-(2-fluoro-4-((1R,2S)-6-hydroxy-2-phenyl-1,2,3,4-tetrahydronaphthalen-1-yl)phenyl)-7-azaspiro[3.5]nonan-2-yl)methyl)-6-oxo-6,8-dihydro-2H,7H-spiro[furo[2,3-e]isoindole-3,4′-piperidin]-7-yl)piperidine-2,6-dione]		10 to 100	25 to 50	
COc1cc(N2CCC3(CC2)CC(CN2CCC4(CC2)COc2cc5c(cc24)CN([C@H]2CCC(=O)NC2=O)C5=O)C3)ccc1[C@@H]1c2ccc(O)cc2CC[C@@H]1c1ccccc1 [Compound A162, (S)-3-(1′-((7-(4-((1S,2S)-6-hydroxy-2-phenyl-1,2,3,4-tetrahydronaphthalen-1-yl)-3-methoxyphenyl)-7-azaspiro [3.5]nonan-2-yl)methyl)-7-oxo-5,7-dihydro-2H,6H-spiro[furo [2,3-f]isoindole-3,4′-piperidin]-6-yl)piperidine-2,6-dione]		< 1	25 to 50	
COc1cc(N2CC3(CCC(CN4CCC5(CC4)COc4cc6c(cc45)CN([C@H]4CCC(=O)NC4=O)C6=O)CC3)C2)c(F)cc1[C@@H]1c2ccc(O)cc2CC[C@@H]1c1ccccc1 [Compound A167, (S)-3-(1′-((2-(2-fluoro-4-((1S, 2S)-6-hydroxy-2-phenyl-1,2,3,4-tetrahydronaphthalen-1-yl)-5-methoxyphenyl)-2-aza-spiro[3.5]nonan-7-yl)methyl)-7-oxo-5,7-dihydro-2H,6H-spiro [furo[2,3-f]isoindole-3,4′-piper-idin]-6-yl)piperidine-2,6-dione]		< 1	50 to 75	
COc1cc(N2CC3(CCC(CN4CCC5(CC4)COc4c5ccc5c4CN([C@H]4CCC(=O)NC4=O)C5=O)CC3)C2)c(F)cc1[C@H]1c2ccc(O)cc2CC[C@H]1c1ccccc1 [Compound A168, (S)-3-(1′-((2-(2-fluoro-4-((1R,2R)-6-hydroxy-2-phenyl-1,2,3,4-tetrahydronaphthalen-1-yl)-5-methoxyphenyl)-2-azaspiro[3.5]nonan-7-yl)methyl)-6-oxo-6,8-dihydro-2H,7H-spiro[furo[2,3-e]isoindole-3,4′-piperidin]-7-yl)piperidine-2,6-dione]		1 to 10	50 to 75	

Continued, in another order:

Dmax [1] [%]	DC50 (16 hrs treatment) [nM]	Compound	Dmax [2] [%]	MCF7 Dmax (MCF-7, maximal ER degradation, 16 hrs treatment)
50 to 75	1 to 10	O=C1CC[C@H](N2Cc3cc4c(cc3C2=O)OC[C@@H]2CN(CC3CC5(CCN(c6ncc([C@@H]7c8ccc(O)cc8CC[C@@H]7c7ccccc7)cn6)CC5)C3)CCN42)C(=O)N1 (single isomer, unassigned) [Compound A144]		
50 to 75	10 to 100	O=C1CC[C@H](N2Cc3c(ccc4c3OC[C@H]3CN(CC5CC6(CCN(c7ccc([C@@H]8c9ccc(O)cc9CC[C@@H]8c8ccccc8)cc7F)CC6)C5)CCN43)C2=O)C(=O)N1 (single isomer, unassigned) [Compound A145]		
> 75	1 to 10	O=C1CC[C@H](N2Cc3cc4c(cc3C2=O)OC[C@@H]2CN(CC3CC5(CCN(c6ccc([C@H]7c8ccc(O)cc8CC[C@H]7c7ccccc7)cc6F)CC5)C3)CCN42)C(=O)N1 (single isomer, unassigned) [Compound A149]		
50 to 75	10 to 100	COc1cc(N2CC3(CCC(CN4CCN5c6ccc7c(c6OC[C@H]5C4)CN([C@H]4CCC(=O)NC4=O)C7=O)CC3)C2)c(F)cc1[C@H]1c2ccc(O)cc2CC[C@H]1c1ccccc1 (single isomer, unassigned) [Compound A165]		
25 to 50	10 to 100	COc1c([C@H]2c3ccc(O)cc3CC[C@H]2c2ccccc2)ccc(N2CCC(CN3CCN4c5cc6c(cc5OC[C@@H]4C3)C(=O)N([C@H]3CCC(=O)NC3=O)C6)CC2)c1F (single isomer, unassigned) [Compound A170]		
> 75	< 1	COc1c([C@@H]2c3ccc(O)cc3CC[C@@H]2c2ccccc2)ccc(N2CCC(CN3CCN4c5cc6c(cc5OC[C@@H]4C3)C(=O)N([C@H]3CCC(=O)NC3=O)C6)CC2)c1F (single isomer, unassigned) [Compound A171]		
